Results as given in BigSolDB 2.1.

O=C(O)C(O)c1ccccc1 (racemic)
Conditions	solubility (mole fraction)
in ethanol, 294.65 K	0.247
in ethanol, 299.45 K	0.261
in ethanol, 303.85 K	0.274
in ethanol, 308.25 K	0.292
in ethanol, 314.65 K	0.325
in ethanol, 319.15 K	0.349
in ethanol, 324.85 K	0.376
in ethanol, 328.55 K	0.394
in ethanol, 333.45 K	0.418
in ethanol, 338.15 K	0.439
in isopropanol, 293.15 K	0.213
in isopropanol, 298.15 K	0.236
in isopropanol, 305.15 K	0.262
in isopropanol, 308.15 K	0.272
in isopropanol, 313.15 K	0.294
in isopropanol, 318.15 K	0.315
in isopropanol, 323.15 K	0.338
in isopropanol, 328.15 K	0.362
in isopropanol, 333.15 K	0.383
in isopropanol, 338.15 K	0.41
in methanol, 283.15 K	0.236
in methanol, 288.15 K	0.243
in methanol, 293.15 K	0.256
in methanol, 298.15 K	0.265
in methanol, 304.65 K	0.281
in methanol, 308.15 K	0.293
in methanol, 313.15 K	0.308
in methanol, 318.15 K	0.323
in n-propanol, 293.15 K	0.196
in n-propanol, 298.15 K	0.213
in n-propanol, 305.35 K	0.237
in n-propanol, 308.15 K	0.252
in n-propanol, 313.15 K	0.275
in n-propanol, 318.15 K	0.3
in n-propanol, 323.15 K	0.325
in n-propanol, 328.15 K	0.347
in n-propanol, 333.15 K	0.368
in n-propanol, 338.15 K	0.39
in water, 293.15 K	0.018
in water, 298.15 K	0.0233
in water, 303.15 K	0.037
in water, 308.15 K	0.0656
in water, 313.15 K	0.11
in water, 318.15 K	0.16
in water, 323.15 K	0.206
in water, 328.15 K	0.237
in water, 333.15 K	0.278
in water, 338.15 K	0.317
